From patent US20210369812A1, “OSTEOINDUCTIVE PEPTIDES, COMPOSITIONS, IMPLANTS, AND METHODS OF USE” (The Board of Regents of the University of Oklahoma, priority 2018, published 2021)

Experiments:
[1] = system: rat radial bone defect model; test: Rat radial bone defect model, Micro-CT; type: in vivo; details: phage-coated titanium scaffold seeded with hMSCs; 4 weeks
Method: The titanium alloy scaffolds were rinsed 3 times in distilled water followed by autoclaving. The scaffolds were then coated in poly-L-lysine by soaking in 2.5 ml of poly-L-lysine per 5 scaffolds in a 24-well cell culture plate for 30 minutes. The poly-L-lysine was then discarded, and the scaffolds were allowed to dry in a sterile hood overnight. In a sterile cell culture hood, 2 scaffolds were loaded into the sterile freeze casting holder (sterilized by autoclaving). 2 ml of sterile, filtered phage solution (3×10^13 phages/ml) was pipetted into the casting holder and directly into the pores of the titanium scaffolds. The solution was allowed to incubate at room temperature for 30 minutes so that phages could stick better to the scaffold. The scaffolds and phage solution were then freeze casted in the double-sided freeze casting machine with a temperature drop of 3° C./min on the lower contact point and a constant 0° C. on the upper contact point. The final temperature for the lower contact point was −135° C. The frozen scaffold and solution were then freeze dried overnight. For cell seeding, the scaffold was then soaked overnight in cell medium followed by seeding 3.6×10^4 hMSCs onto the scaffold the next day in new medium. After 1 day of culturing, the scaffolds were implanted into the rat radial bone defect model. […]

[2] = system: hMSCs; test: Immunofluorescence of osteoblast marker proteins; type: cell-based, human; details: hMSCs on phage films, 26 days, basal media
Source text: OPN was detected with the primary antibody for OPN (RbpAB to osteopontin ab8448 from Abcam). The secondary antibody used was Goat Anti-Rabbit IgG H&L (Alexa Fluor 555) (ab150078) from Abcam (red). OCN was detected with the primary antibody for OCN [OC4-30] (ab13418) from Abcam). The secondary antibody used was Goat Anti-Mouse IgG H&L (Dylight 650) preadsorbed from abcam ab96882 (red). COL was detected using a primary antibody for COL (RbpAb to collagen 1 ab34710). The secondary antibody used was Goat Anti-Rabbit IgG H&L (Alexa Fluor 555) (ab150078) from abcam (red). Cell nuclei were stained by DAPI (blue) for all samples, and actin was stained by phalloidin (green).
This procedure can be scaled for any size well plates or petri dish, but the volumes included are for 96-well tissue culture plates. […]
After culturing hMSCs on phage films for 26 days, the cells were fixed with 4% paraformaldehyde (10 min) and permeabilized with 0.2% Triton X-100 (2 min) at room temperature. […] The osteogenic protein markers osteopontin (OPN), osteocalcin (OCN), and collagen type 1A (COL) were detected through immunofluorescence. OPN was detected with the primary antibody for OPN (RbpAB to osteopontin ab8448 from Abcam). […] OCN was detected with the primary antibody for OCN [OC4-30] […] COL was detected using a primary antibody for COL (RbpAb to collagen 1 ab34710). […]

Sequence: VHVPLHRGAVSA (Completely synthesized in the lab - Ph.D.-12 Phage Display Peptide Library Kit (New England Biolabs))
- Healing of bone defect (Micro-CT) [1]: Increased healing was best observed
- Osteocalcin protein expression (immunofluorescence) [2]: slightly greater osteocalcin production
- Osteopontin protein expression (immunofluorescence) [2]: qualitatively higher level of osteopontin protein expression than the other groups and a higher expression than the positive control
